In US20260250312A1, “ANTIBACTERIAL COMPOUNDS ELIMINATING DORMANT BACTERIAL CELLS” (UNIVERSITÉ D'AIX-MARSEILLE, priority 2022, published 2026):
Values joined by “and” are separate entries in the source; they are usually repeats but may differ in a detail not shown here. Equal values may be shown once.

Columns and labels:
[1] = test system: Escherichia coli (E. coli) persister cells; experiment: Anti-persister activity test, persister cells; assay type: cell-based; settings: Escherichia coli; concentration used 200 μM, 4 hours treatment; read-out: Persister cell survival rate 96 h
Protocol: (§1) Anti-persister activity test: Escherichia coli (E. coli) persister cells were generated and isolated as described by MARQUES, C. N. H. et al. (Applied and Environmental Microbiology 2014, Vol. 80, No. 22, pp. 6976-6991). E. coli persister cells were compared to E. coli non-persister cells. 1 mL persister or non-persister bacteria culture was added in a 1.5 mL microtube with each of the compounds to be tested or ciprofloxacin as a […], and incubated at 37° C. with 160 rpm shaking for 4 hours. After 4 hours treatment with the compounds, the microtubes were centrifuged at 3,500g for 5 minutes and the pellets were resuspended in 1 mL of fresh drug free RM broth (10 g/L M9 salt, 2% casamino acids, 1 mM MgCl2, 1% glycerol). Resuspended bacteria were then plated over LB agar plates and incubated at 37° C. Bacterial colonies were enumerated after 24, 48 and 96 hours to estimate the survival rate.

[2] = test system: E. coli non-persister cells; experiment: Anti-persister activity test, non-persister cells; assay type: cell-based, Escherichia coli; settings: Escherichia coli; concentration used 200 μM, 4 hours treatment; read-out: Non-persister cell survival rate 96 h
Protocol: as §1

[3] = test system: Enterococcus faecalis (ATCC29212); experiment: Microdilution MIC assay (CLSI-based), E. faecalis; assay type: cell-based; settings: Enterococcus faecalis, ATCC29212, 20 h, 20 hours incubation at 35-37° C., MHB; read-out: Minimum inhibitory concentration E. faecalis ATCC29212
Summary of the method: (§2)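 Broth microdilution per modified CLSI guidelines in Mueller Hinton broth, 200 μL, inoculum ca. 5×10^5 CFU/mL; compounds tested as salts, twofold dilutions from 0.2 mg/mL, in triplicate. MIC determined from OD at 620 nm after incubation.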

CHO-K1 cells = experiment: WST1 cytotoxicity test; assay type: cell-based, Chinese hamster; settings: Cricetulus griseus, CHO-K1, 24 h, WST1, 24 hours at 37° C.; read-out: IC50 CHO
Summary of the method: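 CHO-K1 cells pre-cultured 24 h, then exposed 24 h at 37 °C to increasing compound concentrations. Viability read as WST-1 formazan absorbance at 450 nm after 20 min; dose-response fitted by nonlinear regression.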

[4] = test system: Staphylococcus aureus (ATCC25923); experiment: Microdilution MIC assay (CLSI-based), S. aureus; assay type: cell-based; settings: Staphylococcus aureus, ATCC25923, 20 h, 20 hours incubation at 35-37° C., MHB; read-out: Minimum inhibitory concentration S. aureus ATCC25923
Summary of the method: as §2

[5] = test system: Escherichia coli (ATCC28922); experiment: Microdilution MIC assay (CLSI-based), E. coli; assay type: cell-based; settings: Escherichia coli, ATCC28922, 20 h, 20 hours incubation at 35-37° C., MHB; read-out: Minimum inhibitory concentration E. coli ATCC28922
Summary of the method: as §2

[6] = test system: Pseudomonas aeruginosa (ATCC27853); experiment: Microdilution MIC assay (CLSI-based), P. aeruginosa; assay type: cell-based; settings: Pseudomonas aeruginosa, ATCC27853, 20 h, 20 hours incubation at 35-37° C., MHB; read-out: Minimum inhibitory concentration P. aeruginosa ATCC27853
Summary of the method: as §2

| SMILES | viability at 200 µM [1] [%] | viability at 200 µM [2] [%] | MIC [3] | IC50 (CHO-K1 cells) | MIC [4] | MIC [5] | MIC [6] |
| --- | --- | --- | --- | --- | --- | --- | --- |
| O=C(O)c1cn(C2CC2)c2cc(N3CCNCC3)c(F)cc2c1=O [Ciprofloxacin, ciprofloxacin, reference compound] | 5.6 | 0 | – | – | – | – | – |
| COC(=O)CNC(=O)CC[C@@H](C)[C@H]1CCC2C3C(CC[C@@]21C)[C@@]1(C)CC[C@H](NCCCN2CCN(CCCN)CC2)C[C@H]1C[C@H]3O (stereo partly drawn) [Compound S006, methyl ((4R)-4-((3S,5S,7R,10S,13R,17R)-3-((3-(4-(3-aminopropyl)piperazin-1-yl)propyl)amino)-7-hydroxy-10,13-dimethylhexadecahydro-1H-cyclopenta[a]phenanthren-17-yl)pentanoyl)glycinate] | – | – | > 200 µM and > 128 µg/mL | 73.6 µM and 47.7 µg/mL | 25 µM and 16 µg/mL | > 200 µM and > 128 µg/mL | > 200 µM and > 128 µg/mL |
| COC(=O)[C@@H](NC(=O)CC[C@@H](C)[C@H]1CC[C@H]2[C@@H]3[C@H](O)C[C@@H]4CC(NCCCN5CCN(CCCN)CC5)CC[C@]4(C)[C@H]3CC[C@]12C)C(C)C (mixture of isomers) [Compound S002, methyl ((4R)-4-((3S,5S,7R,10S,13R,17R)-3-((3-(4-(3-aminopropyl)piperazin-1-yl)propyl)amino)-7-hydroxy-10,13-dimethylhexadecahydro-1H-cyclopenta[a]phenanthren-17-yl)pentanoyl)valinate] | – | – | 50 µM and 32 µg/mL | 93.3 µM and 64.2 µg/mL | 25 µM and 16 µg/mL | 100 µM and 64 µg/mL | 100 µM and 64 µg/mL |
| COC(=O)[C@H](C)NC(=O)CC[C@@H](C)[C@H]1CCC2C3C(CC[C@@]21C)[C@@]1(C)CC[C@H](NCCCNCCCCNCCCN)C[C@H]1C[C@H]3O (stereo partly drawn) [Compound S038, methyl ((4R)-4-((3S,5S,7R,10S,13R,17R)-3-((3-((4-((3-aminopropyl)amino)butyl)amino)propyl)amino)-7-hydroxy-10,13-dimethylhexadecahydro-1H-cyclopenta[a]phenanthren-17-yl)pentanoyl)-L-alaninate] | – | – | 6.25 µM and 4 µg/mL | 45 µM and 29.8 µg/mL | 3.13 µM and 2 µg/mL | 6.25 µM and 4 µg/mL | 12.5 µM and 8 µg/mL |
| COC(=O)[C@H](NC(=O)CC[C@@H](C)[C@H]1CCC2C3C(C[C@H](O)[C@@]21C)[C@@]1(C)CC[C@H](NCCCNCCCCNCCCN)C[C@H]1C[C@H]3O)C(C)C (stereo partly drawn) [Compound S058, methyl ((4R)-4-((3S,5S,7R,10S,12S,13R,17R)-3-((3-((4-((3-aminopropyl)amino)butyl)amino)propyl)amino)-7,12-dihydroxy-10,13-dimethylhexadecahydro-1H-cyclopenta[a]phenanthren-17-yl)pentanoyl)-D-valinate] | – | – | 100 µM and 64 µg/mL | 6.55 µM and 4.63 µg/mL | 12.5 µM and 8 µg/mL | 100 µM and 64 µg/mL | 50 µM and 32 µg/mL |
| COC(=O)[C@@H](NC(=O)CC[C@@H](C)[C@H]1CC[C@H]2[C@@H]3[C@H](O)C[C@@H]4CC(NCCCNCCCCNCCCN)CC[C@]4(C)[C@H]3CC[C@]12C)C(C)C (mixture of isomers) [Compound S001, methyl ((4R)-4-((3S,5S,7R,10S,13R,17R)-3-((3-((4-((3-aminopropyl)amino)butyl)amino)propyl)amino)-7-hydroxy-10,13-dimethylhexadecahydro-1H-cyclopenta[a]phenanthren-17-yl)pentanoyl)valinate] | – | – | 25 µM and 16 µg/mL | 4.41 µM and 3.04 µg/mL | 3.12 µM and 2 µg/mL | 12.5 µM and 8 µg/mL | 12.5 µM and 8 µg/mL |
| COC(=O)[C@H](Cc1ccccc1)NC(=O)CC[C@@H](C)[C@H]1CCC2C3C(CC[C@@]21C)[C@@]1(C)CC[C@H](NCCCN(CCCN)CCCN)C[C@H]1C[C@H]3O (stereo partly drawn) [Compound S037, methyl ((4R)-4-((3S,5S,7R,10S,13R,17R)-3-((3-(bis(3-aminopropyl)amino)propyl)amino)-7-hydroxy-10,13-dimethylhexadecahydro-1H-cyclopenta[a]phenanthren-17-yl)pentanoyl)-L-phenylalaninate] | – | – | 6.25 µM and 4 µg/mL | 127 µM and 91.7 µg/mL | 6.25 µM and 4 µg/mL | 6.25 µM and 4 µg/mL | 25 µM and 16 µg/mL |
| COC(=O)[C@H](NC(=O)CC[C@@H](C)[C@H]1CCC2C3C(CC[C@@]21C)[C@@]1(C)CC[C@H](NCCCCCCCCCCN)C[C@H]1C[C@H]3O)C(C)C (stereo partly drawn) [Compound S009, methyl ((4R)-4-((3S,5S,7R,10S,13R,17R)-3-((10-aminodecyl)amino)-7-hydroxy-10,13-dimethylhexadecahydro-1H-cyclopenta[a]phenanthren-17-yl)pentanoyl)-D-valinate] | – | – | 25 µM and 16 µg/mL | 20 µM and 13.2 µg/mL | 25 µM and 16 µg/mL | 200 µM and 128 µg/mL | > 200 µM and > 128 µg/mL |
| COC(=O)[C@H](Cc1ccccc1)NC(=O)CC[C@@H](C)[C@H]1CCC2C3C(CC[C@@]21C)[C@@]1(C)CC[C@H](NCCNCCN)C[C@H]1C[C@H]3O (stereo partly drawn) [Compound S024, methyl ((4R)-4-((3S,5S,7R,10S,13R,17R)-3-((2-((2-aminoethyl)amino)ethyl)amino)-7-hydroxy-10,13-dimethylhexadecahydro-1H-cyclopenta[a]phenanthren-17-yl)pentanoyl)-L-phenylalaninate] | – | – | 25 µM and 16 µg/mL | 83.7 µM and 53.5 µg/mL | 25 µM and 16 µg/mL | 25 µM and 16 µg/mL | 100 µM and 64 µg/mL |
| COC(=O)[C@@H](Cc1ccc(O)cc1)NC(=O)CC[C@@H](C)[C@H]1CCC2C3C(C[C@H](O)[C@@]21C)[C@@]1(C)CC[C@H](NCCCNCCCCNCCCN)C[C@H]1C[C@H]3O (stereo partly drawn) [Compound S061, methyl ((4R)-4-((3S,5S,7R,10S,12S,13R,17R)-3-((3-((4-((3-aminopropyl)amino)butyl)amino)propyl)amino)-7,12-dihydroxy-10,13-dimethylhexadecahydro-1H-cyclopenta[a]phenanthren-17-yl)pentanoyl)-D-tyrosinate] | – | – | 100 µM and 64 µg/mL | 6.85 µM and 5.17 µg/mL | 6.25 µM and 4 µg/mL | 100 µM and 64 µg/mL | 100 µM and 64 µg/mL |
